Results taken from PubChem BioAssay AID1963830 (Molecular Pharmacology Branch, DTP, NCI, 2024).

System: 922993-354-T-J3-PDC complex spheroid viability
Test: Anticancer human tumor 922993-354-T-J3-PDC patient-derived endometrial carcinoma cell line growth inhibition [POLQ]
Conditions: for IC50: curve of first compound; for viability, T/C: stronger effect = lower value
Procedure, shortened: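 Growth inhibition in 3D: complex spheroids (tumor PDC, HUVEC, MSC) treated with POLQ inhibitor combinations; where Cmax unknown, highest tested concentration 10 microM, except SN-38 at 1 microM.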

[1] = second compound 0.0316 µM, first compound 0.0316 µM
[2] = second compound 0.0316 µM, first compound 0.1 µM
[3] = second compound 0.0316 µM, first compound 0.316 µM
[4] = second compound 0.0316 µM, first compound 1 µM
[5] = second compound 0.0316 µM, first compound 3.16 µM
[6] = second compound 0.0316 µM, first compound 10 µM
[7] = second compound 0.1 µM, first compound 0.0316 µM
[8] = second compound 0.1 µM, first compound 0.1 µM
[9] = second compound 0.1 µM, first compound 0.316 µM
[10] = second compound 0.1 µM, first compound 1 µM
[11] = second compound 0.1 µM, first compound 3.16 µM
[12] = second compound 0.1 µM, first compound 10 µM
[13] = second compound 0.316 µM, first compound 0.0316 µM
[14] = second compound 0.316 µM, first compound 0.1 µM
[15] = second compound 0.316 µM, first compound 0.316 µM
[16] = second compound 0.316 µM, first compound 1 µM
[17] = second compound 0.316 µM, first compound 3.16 µM
[18] = second compound 0.316 µM, first compound 10 µM
[19] = second compound 1 µM, first compound 0.0316 µM
[20] = second compound 1 µM, first compound 0.1 µM
[21] = second compound 1 µM, first compound 0.316 µM
[22] = second compound 1 µM, first compound 1 µM
[23] = second compound 1 µM, first compound 3.16 µM
[24] = second compound 1 µM, first compound 10 µM
[25] = second compound 3.16 µM, first compound 0.0316 µM
[26] = second compound 3.16 µM, first compound 0.1 µM
[27] = second compound 3.16 µM, first compound 0.316 µM
[28] = second compound 3.16 µM, first compound 1 µM
[29] = second compound 3.16 µM, first compound 3.16 µM
[30] = second compound 3.16 µM, first compound 10 µM
[31] = second compound 10 µM, first compound 0.0316 µM
[32] = second compound 10 µM, first compound 0.1 µM
[33] = second compound 10 µM, first compound 0.316 µM
[34] = second compound 10 µM, first compound 1 µM
[35] = second compound 10 µM, first compound 3.16 µM
[36] = second compound 10 µM, first compound 10 µM
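Also: spheroids exposed to the agents for one week.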
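For viability, T/C in this document: 100% = DMSO vehicle control wells.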

CC1COCCN1c1cc(C2(S(C)(=N)=O)CC2)nc(-c2ccnc3[nH]ccc23)n1 (stereo unspecified) + COC1C(OC(N)=O)C(O)C(Oc2ccc3c(O)c(NC(=O)c4ccc(O)c(CC=C(C)C)c4)c(=O)oc3c2C)OC1(C)C
IC50 (second compound 0.0316 µM): 9.95 µM | IC50 (second compound 0.1 µM): 7.81 µM | IC50 (second compound 0.316 µM): > 10 µM | IC50 (second compound 1 µM): > 10 µM | IC50 (second compound 3.16 µM): 8.35 µM | IC50 (second compound 10 µM): 8.17 µM | viability, T/C [1]: 94.7% | viability, T/C [2]: 94.6% | viability, T/C [3]: 108% | viability, T/C [4]: 105% | viability, T/C [5]: 80.4% | viability, T/C [6]: 49.8% | viability, T/C [7]: 105% | viability, T/C [8]: 92.2% | viability, T/C [9]: 95.6% | viability, T/C [10]: 93.2% | viability, T/C [11]: 80.2% | viability, T/C [12]: 41.5% | viability, T/C [13]: 81.1% | viability, T/C [14]: 105% | viability, T/C [15]: 106% | viability, T/C [16]: 101% | viability, T/C [17]: 87.2% | viability, T/C [18]: 52.5% | viability, T/C [19]: 102% | viability, T/C [20]: 101% | viability, T/C [21]: 92.5% | viability, T/C [22]: 88.6% | viability, T/C [23]: 72.6% | viability, T/C [24]: 52.8% | viability, T/C [25]: 91.8% | viability, T/C [26]: 103% | viability, T/C [27]: 103% | viability, T/C [28]: 85.7% | viability, T/C [29]: 77% | viability, T/C [30]: 44.9% | viability, T/C [31]: 89.1% | viability, T/C [32]: 84.7% | viability, T/C [33]: 96% | viability, T/C [34]: 84.2% | viability, T/C [35]: 64.7% | viability, T/C [36]: 46.9%

CCCS(=O)(=O)Nc1ccc(F)c(C(=O)c2c[nH]c3ncc(-c4ccc(Cl)cc4)cc23)c1F + COC1C(OC(N)=O)C(O)C(Oc2ccc3c(O)c(NC(=O)c4ccc(O)c(CC=C(C)C)c4)c(=O)oc3c2C)OC1(C)C
IC50 (second compound 0.0316 µM): > 10 µM | IC50 (second compound 0.1 µM): > 10 µM | IC50 (second compound 0.316 µM): > 10 µM | IC50 (second compound 1 µM): > 10 µM | IC50 (second compound 3.16 µM): > 10 µM | IC50 (second compound 10 µM): > 10 µM | viability, T/C [1]: 98.7% | viability, T/C [2]: 97% | viability, T/C [3]: 97.3% | viability, T/C [4]: 110% | viability, T/C [5]: 106% | viability, T/C [6]: 68.6% | viability, T/C [7]: 102% | viability, T/C [8]: 103% | viability, T/C [9]: 103% | viability, T/C [10]: 110% | viability, T/C [11]: 102% | viability, T/C [12]: 83.6% | viability, T/C [13]: 112% | viability, T/C [14]: 102% | viability, T/C [15]: 107% | viability, T/C [16]: 109% | viability, T/C [17]: 93% | viability, T/C [18]: 67.1% | viability, T/C [19]: 93.6% | viability, T/C [20]: 103% | viability, T/C [21]: 101% | viability, T/C [22]: 103% | viability, T/C [23]: 90.5% | viability, T/C [24]: 86.8% | viability, T/C [25]: 94.7% | viability, T/C [26]: 103% | viability, T/C [27]: 95.9% | viability, T/C [28]: 94.1% | viability, T/C [29]: 101% | viability, T/C [30]: 73.8% | viability, T/C [31]: 90% | viability, T/C [32]: 84.3% | viability, T/C [33]: 79.8% | viability, T/C [34]: 85.1% | viability, T/C [35]: 90.4% | viability, T/C [36]: 59.5%

CNCc1ccc(-c2[nH]c3cc(F)cc4c3c2CCNC4=O)cc1 + COC1C(OC(N)=O)C(O)C(Oc2ccc3c(O)c(NC(=O)c4ccc(O)c(CC=C(C)C)c4)c(=O)oc3c2C)OC1(C)C
IC50 (second compound 0.0316 µM): > 10 µM | IC50 (second compound 0.1 µM): > 10 µM | IC50 (second compound 0.316 µM): > 10 µM | IC50 (second compound 1 µM): > 10 µM | IC50 (second compound 3.16 µM): > 10 µM | IC50 (second compound 10 µM): > 10 µM | viability, T/C [1]: 104% | viability, T/C [2]: 100% | viability, T/C [3]: 98.3% | viability, T/C [4]: 109% | viability, T/C [5]: 105% | viability, T/C [6]: 85.4% | viability, T/C [7]: 107% | viability, T/C [8]: 106% | viability, T/C [9]: 94.3% | viability, T/C [10]: 90% | viability, T/C [11]: 91.5% | viability, T/C [12]: 78.6% | viability, T/C [13]: 102% | viability, T/C [14]: 103% | viability, T/C [15]: 108% | viability, T/C [16]: 90.3% | viability, T/C [17]: 85.8% | viability, T/C [18]: 81.3% | viability, T/C [19]: 102% | viability, T/C [20]: 101% | viability, T/C [21]: 98.2% | viability, T/C [22]: 107% | viability, T/C [23]: 89% | viability, T/C [24]: 77.4% | viability, T/C [25]: 95.5% | viability, T/C [26]: 89.9% | viability, T/C [27]: 86.6% | viability, T/C [28]: 79% | viability, T/C [29]: 108% | viability, T/C [30]: 70.1% | viability, T/C [31]: 95.4% | viability, T/C [32]: 80.8% | viability, T/C [33]: 80.9% | viability, T/C [34]: 73.1% | viability, T/C [35]: 86.7% | viability, T/C [36]: 78.8%
